The values that follow come from US11084800B2 (Achillion Pharmaceuticals, Inc., priority 2017, dated 2021).

In the assay the target is Human Factor D (Homo sapiens (Human), UniProt P00746). The assay can be described thus: Human Factor D Assay. It counts as biochemical. The procedure, abridged:
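Serum-purified Factor D (80 nM final) preincubated 5 min at room temperature with compound in 50 mM Tris, 1 M NaCl, pH 7.5. Z-L-Lys-SBz and DTNB added at 100 μM each; A405 followed every 30 s for 30 min. IC50 from nonlinear regression of rates versus concentration.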

[1] abbreviates: Factor D inhibition, assay of Example 10, read-out: IC5 (Stars).

Molecules are shown by their SMILES. Read-outs that look alike come from different tables or passages of the source.

Human Factor D, sequence (P00746 26-253): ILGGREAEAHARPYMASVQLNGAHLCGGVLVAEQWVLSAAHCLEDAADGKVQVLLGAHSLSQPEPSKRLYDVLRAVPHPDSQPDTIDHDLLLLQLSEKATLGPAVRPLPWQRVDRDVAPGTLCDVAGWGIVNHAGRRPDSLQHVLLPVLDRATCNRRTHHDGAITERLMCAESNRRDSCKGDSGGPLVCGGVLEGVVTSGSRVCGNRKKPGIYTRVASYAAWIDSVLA

For the compound `CC(=O)c1nn(CC(=O)N2[C@H](C(=O)Nc3nc(Br)ccc3CN3CCn4c(nnc4C(F)(F)F)C3)C[C@@]3(C)C[C@@H]23)c2ccc(-c3cnc(C)nc3)cc12` [Compound 357, (1R,3S,5R)-2-(2-(3-acetyl-5-(2-methylpyrimidin-5-yl)-1H-indazol-1-yl)acetyl)-N-(6-bromo-3-((3-(trifluoromethyl)-5,6-dihydro-[1,2,4]triazolo[4,3-a]pyrazin-7(8H)-yl)methyl)pyridin-2-yl)-5-methyl-2-azabicyclo[3.1.0]hexane-3-carboxamide], the IC50 under setting [1] was less than 1000 nM. For the compound `COC(=O)CCCCCCCCCCCCCCCCC(=O)N[C@@H](CCC(=O)NCCOCCOCC(=O)NCCOCCOCC(=O)NC[C@@]12C[C@@H](C(=O)Nc3nc(Br)ccc3C)N(C(=O)Cn3nc(C(C)=O)c4cc(-c5cnc(C)nc5)ccc43)[C@@H]1C2)C(=O)OC` [Compound 358, (S)-methyl 1-((1R,3S,5R)-2-(2-(3-acetyl-5-(2-methylpyrimidin-5-yl)-1H-indazol-1-yl)acetyl)-3-((6-bromo-3-methylpyridin-2-yl)carbamoyl)-2-azabicyclo[3.1.0]hexan-5-yl)-24-(methoxycarbonyl)-3,12,21,26-tetraoxo-5,8,14,17-tetraoxa-2,11,20,25-tetraazatritetracontan-43-oate], the IC50 (Table 8, Factor D 80 nM, substrate Z-L-Lys-SBz, read-out: IC50) was greater than 10000 nM. Consider `CC(=O)c1nn(CC(=O)N2[C@H](C(=O)Nc3nc(Br)ccc3C)C[C@@]3(Cc4nnco4)C[C@@H]23)c2c(C)cc(-c3cnc(C)nc3)cc12` [Compound 359, (1R,3S,5R)-5-((1,3,4-Oxadiazol-2-yl)methyl)-2-(2-(3-acetyl-7-methyl-5-(2-methylpyrimidin-5-yl)-1H-indazol-1-yl)acetyl)-N-(6-bromo-3-methylpyridin-2-yl)-2-azabicyclo[3.1.0]hexane-3-carboxamide], for which the IC50 under setting [1] is less than 1000 nM.

Take `CC(=O)c1nn(CC(=O)N2[C@H](C(=O)Nc3nc(Br)ccc3C)C[C@@]3(Cc4nnc(C)o4)C[C@@H]23)c2c(C)cc(-c3cnc(C)nc3)cc12` [Compound 360, (1R,3S,5R)-2-(2-(3-acetyl-7-methyl-5-(2-methylpyrimidin-5-yl)-1H-indazol-1-yl)acetyl)-N-(6-bromo-3-methylpyridin-2-yl)-5-((5-methyl-1,3,4-oxadiazol-2-yl)methyl)-2-azabicyclo[3.1.0]hexane-3-carboxamide]: under setting [1], the IC50 is less than 1000 nM. Same read-out and setting: for `Cc1ncc(-c2cc3c(C(N)=O)nn(CC(=O)N4[C@H](C(=O)Nc5nc(Br)ccc5C)C[C@@]5(C)C[C@@H]45)c3cn2)cn1` [Compound 361, 1-(2-((1R,3S,5R)-3-((6-bromo-3-methylpyridin-2-yl)carbamoyl)-5-methyl-2-azabicyclo[3.1.0]hexan-2-yl)-2-oxoethyl)-5-(2-methylpyrimidin-5-yl)-1H-pyrazolo[3,4-c]pyridine-3-carboxamide] the value was less than 1000 nM; for `CC(=O)c1nn(CC(=O)N2[C@H](C(=O)Nc3nc(Br)ccc3-c3nnc(C(C)C)o3)C[C@@]3(C)C[C@@H]23)c2ccc(-c3cnc(C)nc3)cc12` [Compound 362, (1R,3S,5R)-2-(2-(3-acetyl-5-(2-methylpyrimidin-5-yl)-1H-indazol-1-yl)acetyl)-N-(6-bromo-3-(5-isopropyl-1,3,4-oxadiazol-2-yl)pyridin-2-yl)-5-methyl-2-azabicyclo[3.1.0]hexane-3-carboxamide], 1000 to 10000 nM; for `COc1ccc(Br)nc1NC(=O)[C@@H]1C[C@@]2(C)C[C@H]2N1C(=O)Cn1nc(C(C)=O)c2cc(-c3cnc(C)nc3)ccc21` [Compound 363, (1R,3S,5R)-2-(2-(3-acetyl-5-(2-methylpyrimidin-5-yl)-1H-indazol-1-yl)acetyl)-N-(6-bromo-3-methoxypyridin-2-yl)-5-methyl-2-azabicyclo[3.1.0]hexane-3-carboxamide], less than 1000 nM.

Take `CC(=O)c1nn(CC(=O)N2[C@H](C(=O)Nc3nc(Br)ccc3CN3CC(F)C3)C[C@@]3(C)C[C@@H]23)c2ccc(-c3cnc(C)nc3)cc12` [Compound 364, (1R,3S,5R)-2-(2-(3-acetyl-5-(2-methylpyrimidin-5-yl)-1H-indazol-1-yl)acetyl)-N-(6-bromo-3-((3-fluoroazetidin-1-yl)methyl)pyridin-2-yl)-5-methyl-2-azabicyclo[3.1.0]hexane-3-carboxamide]: under setting [1], the IC50 is less than 1000 nM.

In the case of `CC(=O)c1nn(CC(=O)N2[C@H](C(=O)Nc3nc(Br)ccc3CC#N)C[C@@]3(C)C[C@@H]23)c2c(C)cc(-c3cnc(C)nc3)cc12` [Compound 365, (1R,3S,5R)-2-(2-(3-acetyl-7-methyl-5-(2-methylpyrimidin-5-yl)-1H-indazol-1-yl)acetyl)-N-(6-bromo-3-(cyanomethyl)pyridin-2-yl)-5-methyl-2-azabicyclo[3.1.0]hexane-3-carboxamide], the IC50 under setting [1] is less than 1000 nM.

As for `CC(=O)c1nn(CC(=O)N2[C@H](C(=O)Nc3nc(Br)ccc3C)C[C@@]3(CN4CC5(CC5)C4)C[C@@H]23)c2c(C)cc(-c3cnc(C)nc3)cc12` [Compound 366, (1R,3S,5R)-5-(5-azaspiro[2.3]hexan-5-ylmethyl)-2-(2-(3-acetyl-7-methyl-5-(2-methylpyrimidin-5-yl)-1H-indazol-1-yl)acetyl)-N-(6-bromo-3-methylpyridin-2-yl)-2-azabicyclo[3.1.0]hexane-3-carboxamide], under setting [1], the IC50 is less than 1000 nM. The same measure, in the same setting: for `Cc1ncc(-c2ccc3c(c2)c(CC#N)nn3CC(=O)N2[C@H](C(=O)Nc3nc(Br)ccc3C)C[C@@]3(C)C[C@@H]23)cn1` [Compound 367, (1R,3S,5R)-N-(6-bromo-3-methylpyridin-2-yl)-2-(2-(3-(cyanomethyl)-5-(2-methylpyrimidin-5-yl)-1H-indazol-1-yl)acetyl)-5-methyl-2-azabicyclo[3.1.0]hexane-3-carboxamide] the value was greater than 10000 nM; for `Cc1ncc(-c2ccc3c(c2)c(C(C)(C)C#N)nn3CC(=O)N2[C@H](C(=O)Nc3nc(Br)ccc3C)C[C@@]3(C)C[C@@H]23)cn1` [Compound 368, (1R,3S,5R)-N-(6-bromo-3-methylpyridin-2-yl)-2-(2-(3-(2-cyanopropan-2-yl)-5-(2-methylpyrimidin-5-yl)-1H-indazol-1-yl)acetyl)-5-methyl-2-azabicyclo[3.1.0]hexane-3-carboxamide], greater than 10000 nM; for `CC(=O)c1nn(CC(=O)N2[C@H](C(=O)Nc3nc(Br)ccc3C)C[C@@]3(CN4CC5(CC5)C4)C[C@@H]23)c2c(CF)cc(-c3cnc(C)nc3)cc12` [Compound 369, (1R,3S,5R)-5-(5-azaspiro[2.3]hexan-5-ylmethyl)-2-(2-(3-acetyl-7-(fluoromethyl)-5-(2-methylpyrimidin-5-yl)-1H-indazol-1-yl)acetyl)-N-(6-bromo-3-methylpyridin-2-yl)-2-azabicyclo[3.1.0]hexane-3-carboxamide], less than 1000 nM. The same measure, in the same setting: the figure for `CC(=O)c1nn(CC(=O)N2[C@H](C(=O)Nc3nc(Br)ccc3C)C[C@@]3(CN4CC5(CC5)C4)C[C@@H]23)c2c(C)nc(-c3cnc(C)nc3)cc12` [Compound 370, (1R,3S,5R)-5-(5-azaspiro[2.3]hexan-5-ylmethyl)-2-(2-(3-acetyl-7-methyl-5-(2-methylpyrimidin-5-yl)-1H-pyrazolo[3,4-c]pyridin-1-yl)acetyl)-N-(6-bromo-3-methylpyridin-2-yl)-2-azabicyclo[3.1.0]hexane-3-carboxamide] is less than 1000 nM; for `CC(=O)c1nn(CC(=O)N2[C@H](C(=O)Nc3nc(Br)ccc3C)C[C@@]3(Cc4nc(C)no4)C[C@@H]23)c2c(C)cc(-c3cnc(C)nc3)cc12` [Compound 372, (1R,3S,5R)-2-(2-(3-acetyl-7-methyl-5-(2-methylpyrimidin-5-yl)-1H-indazol-1-yl)acetyl)-N-(6-bromo-3-methylpyridin-2-yl)-5-((3-methyl-1,2,4-oxadiazol-5-yl)methyl)-2-azabicyclo[3.1.0]hexane-3-carboxamide] it is less than 1000 nM. As for `CC(=O)c1nn(CC(=O)N2[C@H](C(=O)Nc3nc(Br)ccc3C)C[C@@]3(C)C[C@@H]23)c2cc(C)c(-c3cnc(C)nc3)cc12` [Compound 373, (1R,3S,5R)-2-(2-(3-acetyl-6-methyl-5-(2-methylpyrimidin-5-yl)-1H-indazol-1-yl)acetyl)-N-(6-bromo-3-methylpyridin-2-yl)-5-methyl-2-azabicyclo[3.1.0]hexane-3-carboxamide], the IC50 under setting [1] is less than 1000 nM. Regarding `CC(=O)c1nn(CC(=O)N2[C@H](C(=O)Nc3nc(Br)ccc3C)C[C@@]3(CCN(C)C)C[C@@H]23)c2c(CF)cc(-c3cnc(C)nc3)cc12` [Compound 377, (1R,3S,5R)-2-(2-(3-acetyl-7-(fluoromethyl)-5-(2-methylpyrimidin-5-yl)-1H-indazol-1-yl)acetyl)-N-(6-bromo-3-methylpyridin-2-yl)-5-(2-(dimethylamino)ethyl)-2-azabicyclo[3.1.0]hexane-3-carboxamide], the IC50 under setting [1] is less than 1000 nM. Still for that read-out and setting: for `CC(=O)c1nn(CC(=O)N2[C@H](C(=O)Nc3nc(Br)ccc3C)C[C@@]3(CCCCN(C)C)C[C@@H]23)c2c(CF)cc(-c3cnc(C)nc3)cc12` [Compound 378, (1R,3S,5R)-2-(2-(3-acetyl-7-(fluoromethyl)-5-(2-methylpyrimidin-5-yl)-1H-indazol-1-yl)acetyl)-N-(6-bromo-3-methylpyridin-2-yl)-5-(4-(dimethylamino)butyl)-2-azabicyclo[3.1.0]hexane-3-carboxamide] the value was less than 1000 nM.

Take `CC(=O)c1nn(CC(=O)N2[C@H](C(=O)Nc3nc(C(F)(F)F)ccc3C)C[C@@]3(CCCN(C)C)C[C@@H]23)c2c(CF)cc(-c3cnc(C)nc3)cc12` [Compound 380, (1R,3S,5R)-2-(2-(3-acetyl-7-(fluoromethyl)-5-(2-methylpyrimidin-5-yl)-1H-indazol-1-yl)acetyl)-5-(3-(dimethylamino)propyl)-N-(3-methyl-6-(trifluoromethyl)pyridin-2-yl)-2-azabicyclo[3.1.0]hexane-3-carboxamide]: under setting [1], the IC50 is less than 1000 nM.
